For series [1], the system named is OSR1-GFP reporter iPS cells. The series is described as follows: Induction of differentiation into intermediate mesoderm cells (novel induction method 1), flow cytometry using OSR1 (GFP) expression. The format is cell-based, human. The note with it: novel induction method 1: 2 days 3 micromolar CHIR99021 + 10 micromolar Y-27632, then 8 days 1 micromolar retinoic acid derivative. As for the experimental part: (§1) Human iPS cells (201B7) provided by Dr. Yamanaka at Kyoto University were cultured by the known method (Takahashi, K. et al., Cell 131: 861-872). Subsequently, a GFP-PGK-Neo cassette was inserted into a site downstream of the OSR1 initiation codon of a BAC clone (RP11-458J18) (BACPAC RESOURCES) using pRed/ET (Gene Bridges GmbH), so as to prepare a OSR1-GFP BAC transgene. The resulting modified BAC clone was introduced into the human iPS cell and the OSR1-GFP reporter iPS cell line expressing GFP in conjunction with the expression of endogenous OSR1 was established.
(§2) The above OSR1-GFP reporter iPS cells were cultured to confluence on a 10-cm dish using SNL cells as feeder cells (McMahon, A. P. and Bradley, A., 1990, Cell 62; 1073-1085). A CTK solution was added to the cells for dissociation, the feeder cells were removed, and the iPS cells were dispersed into single cells with the addition of Accutase.
Subsequently, the iPS cells were suspended in a DMEM/F12 medium containing Glutamax, 2% FBS, and PenStrep, and 10 micromolar Y-27632 and 3 micromolar CHIR99021 were added thereto. Subsequently, the cell suspension was transferred to a dish coated with 0.1% gelatin, and culture was conducted for 2 days. […]
After the cell culture had been conducted for 8 days, the cells were analyzed by flow cytometry (FACS) using OSR1 expression as an indicator.
For orientation: In flow cytometry, cells or beads pass a laser one at a time.

The subject of series [2] is OSR1-GFP reporter iPS cells. The series is described as follows: Induction of differentiation into intermediate mesoderm cells (novel induction methods 2 and 3), flow cytometry using OSR1 (GFP) expression; time course. The format is cell-based, human. As to conditions: for time at which growth of OSR1 positive cells had plateau after the medium change: cell numbers measured 3, 5, 8 or 12 days after change to medium with 1 micromolar retinoic acid derivative. As for the experimental part:
as §1, §2
Subsequently, the iPS cells were suspended in a DMEM/F12 medium containing Glutamax, 2% FBS, and PenStrep, and a combination of (1) 10 micromolar Y-27632 (ROCK inhibitor), 3 micromolar CHIR99021, and 1 micromolar AM580 or (2) 10 micromolar Y-27632 (ROCK inhibitor), 3 micromolar CHIR99021, and 1 micromolar TTNPB was added thereto. Subsequently, the cell suspension was transferred to a dish coated with 0.1% gelatin, and culture was conducted for 2 days.
Thereafter, the medium was removed, the culture product was washed in PBS, and the iPS cells were then cultured for an additional 8 days (novel induction method 2) or 3 days (novel induction method 3) in a medium prepared by adding 1 micromolar AM580 or 1 micromolar TTNPB to a DMEM/F12 medium containing 2-mercaptoethanol, Glutamax, 10% KOCKOUT SR, 0.1 mM MEM NEAA, and PenStrep. During culture, the medium was exchanged with fresh medium once every 3 days in the case of the novel induction method 2.
After the cell culture had been conducted for 8 or 3 days, the cells were analyzed by flow cytometry (FACS) using OSR1 expression as an indicator.
Next, the length of time from medium change was studied. Briefly, number of OSR1 positive cells and total cells were measured at 3 days (novel induction method 3), 5 days, 8 days (novel induction method 2) or 12 days after the medium was changed to a medium prepared by adding 1 micromolar AM580 or 1 micromolar TTNPB to a DMEM/F12 medium containing 2-mercaptoethanol, Glutamax, 10% KOCKOUT SR, 0.1 mM MEM NEAA, and PenStrep (FIG. 4). The growth of OSR1 positive cells had plateau at 8 day after the medium change.

Series [3] concerns iPS cell clones (201B6, 253G1, 263G4 and 585A1) and ES cell clone (KhES1, KhES3 and H9). The series is described as follows: Level of OSR1 expression after differentiation from each iPS cell clone or ES clone (novel induction method 3). The format is cell-based, human. The source says: White bar indicates the result using AM580. Black bar indicates the result using TTNPB. Grey bar indicate the result of conventional method without AM580 and TTNPB.

The test system of series [4] is OSR1-GFP reporter iPS cells. The series is described as follows: Long term culture of OSR1 (GFP) positive cells, RT-PCR and immunostaining. The note with it: novel induction method 3 with 1 micromolar TTNPB, then 8 days with 100 ng/ml BMP7, 100 ng/ml Wnt3a on Matrigel. The format is cell-based, human. As for the experimental part: The above OSR1-GFP reporter iPS cells were dissociated into single cells in a manner similar to Example 2. Subsequently, the iPS cells were suspended in a DMEM/F12 medium containing Glutamax, 2% FBS, and PenStrep, and a combination of 10 micromolar Y-27632, 3 micromolar CHIR99021, and 1 micromolar TTNPB was added thereto. Subsequently, the cell suspension was transferred to a dish coated with 0.1% gelatin, and culture was conducted for 2 days. Thereafter, the medium was removed, the culture product was washed in PBS, and the iPS cells were then cultured for an additional 3 days (novel induction method 3) in a medium prepared by adding 1 micromolar TTNPB to a DMEM/F12 medium containing 2-mercaptoethanol, Glutamax, 10% KOCKOUT SR, 0.1 mM MEM NEAA, and PenStrep. After isolating GFP positive cells from obtained cells with flow cytometer, the GFP positive cells were transferred to a dish coated with Matrigel (BD), and cultured in DMEM/F12 medium containing 10 micromolar Y-27632, 100 ng/ml BMP7, 100 ng/ml Wnt3a, 2-mercaptoethanol, Glutamax, 10% KOCKOUT SR, 0.1 mM MEM NEAA, and PenStrep for 8 days. During culture, the medium was exchanged with fresh medium once every 3 days. Obtained cells were analyzed with RT-PCR (FIG. 7A) and immunostaining (FIG. 7B). […]

Series [5] relates to OSR1-GFP reporter iPS cells. The series is described as follows: Suspention culture of OSR1 (GFP) positive cells to form sphere, immunostaining. The format is cell-based, human. As to conditions: novel induction method 3 with 1 micromolar TTNPB, then suspention culture on low cell adhesion plate. As for the experimental part:
The above OSR1-GFP reporter iPS cells were dispersed into single cells in a manner similar to Example 2. Subsequently, the iPS cells were suspended in a DMEM/F12 medium containing Glutamax, 2% FBS, and PenStrep, and a combination of 10 micromolar Y-27632, 3 micromolar CHIR99021, and 1 micromolar TTNPB was added thereto. Subsequently, the cell suspension was transferred to a dish coated with 0.1% gelatin, and culture was conducted for 2 days. Thereafter, the medium was removed, the culture product was washed in PBS, and the iPS cells were then cultured for an additional 3 days (novel induction method 3) in a medium prepared by adding 1 micromolar TTNPB to a DMEM/F12 medium containing 2-mercaptoethanol, Glutamax, 10% KOCKOUT SR, 0.1 mM MEM NEAA, and PenStrep. After isolating GFP positive cells from obtained cells with flow cytometer, 1×10^5 GFP positive cells were transferred to a low cell adhesion plate (PrimeSurface, Sumitomo Bakelite co.), and cultured in DMEM/F12 medium containing 10 micromolar Y-27632, 2-mercaptoethanol, Glutamax, 10% KOCKOUT SR, 0.1 mM MEM NEAA, and PenStrep in suspention to form cell sphere. During culture, the medium was exchanged with fresh medium once every 3 days.
Obtained cells were analyzed with immunostaining (FIG. 8).

Series [6] has as its system OSR1-GFP reporter iPS cells. The series is described as follows: Organ culture of OSR1 (GFP) positive cells with mouse metanephric cells, immunostaining. The format is cell-based, human. As to conditions: novel induction method 3 with 1 micromolar TTNPB, then mixed with E11.5 mouse metanephric cells, 7 days floating culture. As for the experimental part:
The above OSR1-GFP reporter iPS cells were dissociated into single cells in a manner similar to Example 2. Subsequently, the iPS cells were suspended in a DMEM/F12 medium containing Glutamax, 2% FBS, and PenStrep, and a combination of 10 micromolar Y-27632, 3 micromolar CHIR99021, and 1 micromolar TTNPB was added thereto. Subsequently, the cell suspension was transferred to a dish coated with 0.1% gelatin, and culture was conducted for 2 days. Thereafter, the medium was removed, the culture product was washed in PBS, and the iPS cells were then cultured for an additional 3 days (novel induction method 3) in a medium prepared by adding 1 micromolar TTNPB to a DMEM/F12 medium containing 2-mercaptoethanol, Glutamax, 10% KOCKOUT SR, 0.1 mM MEM NEAA, and PenStrep. After isolating GFP positive cells from obtained cells with flow cytometer, 1×10^4 GFP positive cells were mixed with 1×10^5 mouse metanephric cells obtained from E11.5 mouse embryo on a low cell adhesion plate (PrimeSurface). The next day, cell sphere was transferred on the Isopore™ Membrane Filters (Merck Millipore) floated on Improve MEM medium containing 10 micromolar Y-27632, 10% FBS and PenStrep. During culture, the medium was exchanged with fresh medium once every 3 days. Obtained cells were analyzed with immunostaining at 7 days after floating culture (FIG. 9).

For series [7], the system named is intranuclear receptor of retinoic acid (RAR). The series is described as follows: Activity through retinoic acid pathway compared with ATRA. As to conditions: stated as effect of the invention, no test described.
A short description of series [8]: Cytotoxicity compared with ATRA. The format is cell-based. As to conditions: stated as effect of the invention, no test described.
Setting [9] is: novel induction method 2: 2 days 3 micromolar CHIR99021 + 10 micromolar Y-27632 + 1 micromolar retinoic acid derivative, then 8 days 1 micromolar retinoic acid derivative.
Setting [10] is: novel induction method 3: 2 days 3 micromolar CHIR99021 + 10 micromolar Y-27632 + 1 micromolar retinoic acid derivative, then 3 days 1 micromolar retinoic acid derivative.

As for `C/C(=C\c1ccc(C(=O)O)cc1)c1ccc2c(c1)C(C)(C)CCC2(C)C` [TTNPB, 4-[(1E)-2-(5,6,7,8-tetrahydro-5,5,8,8-tetramethyl-2-naphthalenyl)-1-propen-1-yl]-benzoic acid], the “induction of OSR1-positive cells (FACS)” value in series [1], in series [2] (setting [9]) and in series [2] (setting [10]) was “OSR1-positive cells were successfully induced” throughout. In addition, the “time at which growth of OSR1 positive cells had plateau after the medium change” value in series [2] turned out to be 8 days. The “differentiation of further iPS and ES cell clones into intermediate mesoderm cells” value in series [3] is on record as “could be differentiated into intermediate mesoderm cells”. The “further differentiation of obtained OSR1 positive cells” value in series [4] is “could be further differentiated into renal precursor cells”. Moreover, the “luminal structure formation from OSR1 positive cells by forming sphere” value in series [5] was “luminal structure could be constructed”. In addition, the “luminal structure formation from OSR1 positive cells by mixed culture with organ” value in series [6] is “luminal structure could be constructed”. The “activity relative to all-trans retinoic acid (ATRA)” value in series [7] is on record as “higher than that of all-trans retinoic acid (ATRA)”. Moreover, in series [8], the “cytotoxicity relative to ATRA” value was “lower cytotoxicity compared with ATRA”.
Take `CC1(C)CCC(C)(C)c2cc(C(=O)Nc3ccc(C(=O)O)cc3)ccc21` [AM580, 4-[[(5,6,7,8-tetrahydro-5,5,8,8-tetramethyl-2-naphthalenyl)carbonyl]amino]-benzoic acid]: the “induction of OSR1-positive cells (FACS)” value in series [1], in series [2] (setting [9]) and in series [2] (setting [10]) was “OSR1-positive cells were successfully induced” in each case. For the same molecule, the “time at which growth of OSR1 positive cells had plateau after the medium change” value in series [2] worked out at 8 days. Also, in series [3], the “differentiation of further iPS and ES cell clones into intermediate mesoderm cells” value is “could be differentiated into intermediate mesoderm cells”. In addition, in series [7], the “activity relative to all-trans retinoic acid (ATRA)” value is “higher than that of all-trans retinoic acid (ATRA)”. Also, in series [8], the “cytotoxicity relative to ATRA” value was “lower cytotoxicity compared with ATRA”.
